≈ marks a conversion by molar mass, not a printed value. Like-named read-outs stand apart in the source and are kept apart here.
Columns and labels:
[1] = Caco-2 cell permeability study; assay type: in vitro ADME; settings: human; for efflux ratio at 2 h, 5 µM: Caco-2, pH 7.4; for recovery at 2 h, 5 μM: Caco-2, pH 7.4, Caco-2, 5 μM; for Papp A→B at 2 h, 5 µM / Papp B→A at 2 h, 5 µM: pH 7.4, Caco-2, 5 μM; for Papp A→B at 2 h, 5 µM: apical to basolateral; for Papp B→A at 2 h, 5 µM: basolateral to apical
Description: One of the physicochemical quantities that mirrors the interaction of a compound with the cell membrane is permeability. Traditionally, measuring permeability with the PAMPA model provides estimates of passive permeability across a model membrane. […] Therefore, we measure the cell permeability of the six compounds using Caco-2 cells, so that the apical to basolateral (A to B) and basolateral to apical (B to A) permeabilities, and thereby the efflux ratio, can be determined. Three commercial drugs (Table 2) are used as standard compounds to establish and validate our in-house assay.
For Caco-2 cells (originally obtained from the American Type Culture Collection; ATCC, Manassas, VA, USA), 50 μL and […] of cell culture medium are added to each well of the Transwell insert and reservoir, respectively. And then the HTS transwell plates are incubated at 37 °C, 5% CO2 for 1 h before cell seeding. Caco-2 cells are diluted to 6.86 × 10^5 cells/mL with culture medium and 50 μL of cell suspension is dispensed into the filter well of the 96-well HTS Transwell plate. Cells are cultivated for 14–18 days in a cell culture incubator at 37 °C, 5% CO2, 95% relative humidity. Cell culture medium is replaced every other day, beginning no later than 24 h after initial plating. Stock solutions of the test compounds are prepared at a concentration of 10 mM in DMSO. […] Detailed assay procedures are provided in the SI. […]
dilution factor is changed according to the log D value and the LC-MS signal response. The samples are evaluated by LC-MS/MS analysis. All experiments are performed in duplicates.
5. Caco-2 Cell Permeability Assay
The Caco-2 plate is removed from the incubator and washed twice with pre-warmed HBSS (10 mM HEPES, pH 7.4), and then incubated at 37 °C for 30 minutes. The stock solutions of control compounds and test compounds are diluted in DMSO to get 1 mM solutions and then diluted with HBSS (10 mM HEPES, pH 7.4) get 5 μM working solutions. The final concentration of DMSO in the incubation system is 0.5%. To determine the rate of drug transport in the apical to basolateral direction. 125 μL of 5 μM working solution of control compounds and test compounds are added to the Transwell insert (apical compartment), and transfer 50 μL sample (D0 sample) immediately from the apical compartment to a new 96-well plate. Fill the wells in the receiver plate (basolateral compartment) with 235 μL of HBSS (10 mM HEPES, pH 7.4). To determine the rate of drug transport in the basolateral to apical direction. 285 μL of 5 μM working solution of control compounds and test compounds are to the receiver plate wells (basolateral compartment), and transfer 50 μL sample (D0 sample) immediately from the basolateral compartment to a new 96-well plate.
Fill the wells in the Transwell insert (apical compartment) with 75 μL of HBSS (10 mM HEPES, pH 7.4).
The assay is performed in duplicate. The plates are incubated at 37 °C for 2 h. At the end of the incubation, 50 μL samples from donor sides (apical compartment for Ap→Bl flux, and basolateral compartment for Bl→Ap) and receiver sides (basolateral compartment for Ap→Bl flux, and apical compartment for Bl→Ap) are transferred to wells of a new 96-well plate, followed by the addition of 4 volume of cold acetonitrile containing appropriate internal standards (IS). Samples are Vortexed for 5 minutes and then centrifuged at 3,220 g for 30 minutes. An aliquot of 100 µL of the supernatant is mixed with an appropriate volume of ultra-pure water before LC-MS/MS analysis (see SI Bioanalytical Method for Caco-2 Cell Permeability […]
Papp (A to B) is greater than the Papp (A to B) of minoxidil it is assigned as high permeability. If the Papp (A to B) is […]

[2] = log D7.4 by shake-flask method (1-octanol/PBS); assay type: physicochemical
Procedure: (§1) One explanation for the high IC50 values (i.e., low activity) of the new compounds is their potential poor solubility in aqueous solution or inadequate lipophilicity. To investigate this hypothesis, we determined kinetic solubility in […] phosphate buffer at pH 7.4 (Table 1). […] The remaining two compounds, BE and 29, show low solubilities (<0.1 μM). […] Additionally, since approximately 95% of drugs are ionizable, assessment of lipophilicity at pH 7.4 (log D7.4) is essential during the initial phases of drug discovery. In this study, we employ the shake-flask method to evaluate this property. […] Because lipophilicity directly reflects compound–membrane interaction, the activity of these compounds against PANC-1 cells likely stems from their interaction with the cell membrane.
The basic solution is titrated with the acidic solution to achieve pH 7.4, with the pH verified and adjusted to 7.4 ± 0.1 on the experiment day. Saturated 1-octanol and PBS (pH 7.4) are also prepared. The stock solutions of test compounds and control compound progesterone are prepared in DMSO at a concentration of 10 mM (0.666 mM: compound 39). The detailed procedure for log D determinations can be found in the SI. […]
4. Procedure for log D determinations […]
µL of phosphate buffer saturated 1-octanol to get a concentration of 300 µM working solution. 20 µL of 300 µM compound solution is placed in order into their proper 96-well rack followed by the addition of 980 µL of 1-octanol saturated phosphate buffer. One stir stick is added to each vial and vials are sealed molded PTFE/Silicone plugs. Then the log D plate is transferred to the Eppendorf Thermomixer Comfort plate shaker and shaken at 25°C at 1,100 RPM for 1 h. The assay is performed in duplicate. After completion of 1 h, the stir sticks are removed using a big magnet. The samples are then centrifuged at 25°C at 20,000 g for 20 minutes to separate the phases, and syringe is used to remove the lower (buffer) phases to the empty tubes. Then the buffer phase is diluted with the same volume of acetonitrile/ultrapure water (50%/50%) for LC-MS/MS analysis. 300 µM working solution is diluted with acetonitrile/ultrapure water (50%/50%) to achieve a concentration of 3 µM. Then the 3 µM solution is diluted to 0.3 µM to get the total samples by adding 4 volumes of acetonitrile/ultrapure water (50%/50%) and 5 volumes of 1-octanol saturated Phosphate Buffer for LC-MS/MS analysis. […]
test compounds and control compound is placed in order into their 2.0 mL deep well plate, 500 µL of […]
followed by the addition of 500 µL of saturated PBS (pH 7.4). Seal the plate using a Silicone sealing mat.
Then the log D plate is transferred to the Eppendorf Thermomixer Comfort plate shaker and shaken at 25°C at 2,000 RPM for 2 h. After completion of 2 h, the samples are then centrifuged at 25°C at 3,220 g for 30 minutes to separate the phases, and pipette are used to remove the upper (1-octanol) and lower (buffer) phases to the empty tubes, respectively. Aliquots of 50 µL are taken from upper phases followed by addition of 450 µL of acetonitrile (containing internal standards (IS, 200 nM labetalol, 100 nM tolbutamide and 100 nM ketoprofen)). Mix with a pipette, and then aliquots of 50 µL are taken from the diluent followed by addition of 450 µL of acetonitrile (containing internal standards (IS, 200 nM labetalol, 100 nM tolbutamide and 100 nM ketoprofen)). […]

[3] = Kinetic solubility in PBS pH 7.4; assay type: physicochemical; settings: sodium phosphate buffer (PBS), 25 °C, pH 7.4, aqueous buffer, kinetic from dmso stock, PBS pH 7.4, 25 °C
Procedure: as §1
Solubility is determined in 100 mM sodium phosphate buffer (PBS), pH 7.4. The stock solutions of test compound and control compound progesterone are prepared in DMSO at a concentration of 10 mM. 30 µL of working solutions of each sample is placed in order into their proper 96-well rack. 970 µL of PBS pH 7.4 is added into each vial of the cap-less Solubility Sample plate. The assay is performed in duplicate. Add one stir stick to each vial and seal using a molded PTFE/Silicone plug. Then the Solubility Sample plate is transferred to the Eppendorf Thermomixer Comfort plate shaker and shaken at 25 °C at 1100 RPM for 2 h. After completion of the 2 h, plugs are removed and the stir sticks are removed using a big magnet, the samples from the Solubility Sample plate are transferred into the filter plate. Using the Vacuum Manifold, all the samples are filtered. Aliquot of 5 µL is taken from the filtrate, followed by addition of 5 µL DMSO and 490 µL of a mixture of H2O and acetonitrile (1:1 in v/v). 200 μL of diluent is transferred to a new 96-well plate for LC-MS/MS analysis (see SI Bioanalytical Method for Solubility Measurement). The dilution factor is changed according to the solubility values and the LC-MS signal response.
MRM) / -4500 v (negative MRM). […]
13. Bioanalytical Method for Solubility Measurement
MS analysis: Triple Quad TM 5500 instrument from AB Inc (Canada) with an ESI interface
Injection volume: 1 μL, 3 μL, 5 μL or 10 μL
Column: ACQUITY UPLC BEH C18 (2.1 × 50 mmI.D. S-1.7 μm, 12 nm) Column
Mobile phase: 0.1% Ammonium hydroxide solution in water (A) and 0.1% Ammonium hydroxide solution
Column: XSelect Hss T3 2.5μm (2.1 × 50 mm) Column XP
Mobile phase: 0.1% formic acid in water (A) and 0.1% formic acid in acetonitrile (B)

[4] = read-out: Mean % Solution Recovery A to B
[5] = read-out: Mean % Solution Recovery B to A

Row | efflux ratio at 2 h, 5 µM [1] | recovery at 2 h, 5 μM [1, 4] [%] | recovery at 2 h, 5 μM [1, 5] [%] | Papp A→B at 2 h, 5 µM [1] [×10⁻⁶ cm/s] | Papp B→A at 2 h, 5 µM [1] [×10⁻⁶ cm/s] | log D7.4 ([2]; 1-Octanol/PBS pH 7.4, shake-flask) | logD ([2]; 1-octanol/PBS, pH 7.4, 1-Octanol/PBS pH 7.4, shake-flask) | solubility at 2 h [3] [µM] | Compound
1 | 1.08 | 104 | 106 | 9.52 | 10.3 |  |  |  | Nc1cc(N2CCCCC2)nc(N)[n+]1[O-] [Minoxidil, reference compound]
2 | 25.9 | 83.2 | 95 | 0.77 | 20 |  |  |  | C[C@H]1O[C@@H](O[C@H]2[C@@H](O)C[C@H](O[C@H]3[C@@H](O)C[C@H](O[C@H]4CC[C@@]5(C)[C@H](CC[C@@H]6[C@@H]5C[C@@H](O)[C@]5(C)[C@@H](C7=CC(=O)OC7)CC[C@]65O)C4)O[C@@H]3C)O[C@@H]2C)C[C@H](O)[C@@H]1O [Digoxin, reference compound]
3 | 1.26 | 99.5 | 48.6 | 0.0836 | 0.105 | −0.30 |  |  | C[C@@H]1C(=O)[C@](C)(O)C(=O)NCC(=O)N[C@H](CN2CCN(C)CC2)/C=C/C(=O)N(C)CC(=O)O[C@H]1CCCCCc1cn(CCCCCCCCCC(=O)O)nn1 [Compound 39]
4 |  |  |  |  |  |  | 3.85 | 13.1 (≈ 4.13 µg/mL) | CC(=O)[C@H]1CC[C@H]2[C@@H]3CCC4=CC(=O)CC[C@]4(C)[C@H]3CC[C@]12C [Progesterone, reference compound]
